Assay results reported in patent publication US11912710B2 (UPPTHERA, INC., priority 2021, dated 2024).

Assays:
Format in all cases: cell-based
PLK1 = biological target: T1, PLK1 (Homo sapiens, UniProt P53350); assay: Luciferase assay for PLK1 in HeLa LgBit (Plk1-HiBit KI) cell line; details: 300 nM compound, luminescence after 9 hours, read-out: Activity: ratio of the luminescense value of compound treatment group to DMSO treatment group
T1 construct: endogenous in cells; host or cells: HeLa LgBit (Plk1-HiBit KI): HeLa cells stably expressing LgBit, with HiBit knocked into the endogenous Plk1 locus by CRISPR/Cas9
Experimental: 2. Luciferase Assay for PLK1
(1) Preparation and Culture of HeLa LgBit (Plk1-HiBit KI) Cell Line
A HeLa cell line in which the LgBit vector was transfected and expressed stably was prepared. Then, after constructing gRNA and donor to express the HiBit amino acid sequence behind the C-terminal of the Plk1 gene, which was inherent in the cell, it was inserted into the cell together with a vector capable of expressing CRISPR/Cas9. Only the cells in which the insertion was completed and knock-in had progressed were selected, sub-cultured and used.
(2) Treatment of Compounds of the Present Invention and Method of Luciferase Assay
In the case of HeLa LgBit (Plk1-HiBit KI), the compounds were treated after being released after thymidine block, and the process was as follows. Thymidine (Sigma-Aldrich Cat. No. T9250-5G) was completely dissolved in DW and used in the experiment. For thymidine block, the products were treated with 2 mM of thymidine and then incubated for 24 hours. For release and chemical treatment, the medium was suctioned and washed with 1×PBS. TrypLE™ was added and incubated in 37° C. CO2 incubator for 5 min. Cells neutralized by adding complete media were counted through a counter. For each well of a 96-well culture plate (SPL), 3.3×10^4 cells and a total medium volume of 150 μL were seeded and incubated in a CO2 incubator.
Each cell line was incubated in a CO2 incubator for 18 hours, and Endurazine was added to each well to make up 4% of the total volume. After adding the compound of the present invention in a 96-well white plate (SPL) to a concentration of 300 nM, the wavelength of the plate reader (BMG Labtech, CLARIOstar Plus) was set to […], and then the luminescence was tracked in real time.
In Table 2, Activity represents the ratio of the luminescense value of each Exemplary Compound treatment group to DMSO treatment group (+++: <0.3, ++<0.6, +<0.7).

MRC-5 cell line = assay: Cell viability assay (cytotoxicity) for MRC-5 cell line; details: Homo sapiens, MRC5, 120 h; MRC-5 normal cell line, 5 days, EZ-Cytox, 10000 nM to 1.52 nM; read-out: Activity: IC50 value to MRC-5 cell line (Exemplary Compounds)
Experimental: 4. Cell Viability Assay for MRC-5 Cell Line
(1) Culture of MRC-5 Cell Line
Passage of cultured cells was maintained within P15.
(2) Treatment of Compounds of the Present Invention
Then, it was cultured in 37° C.
(3) Cytotoxicity Experiment
CO2 incubator for 4 hours.
Cell Viability Assay for MRC-5 cell line

NCI-H526 cell line = assay: Cell viability assay for H526 cell line; details: Homo sapiens, NCI-H526, 120 h; H526 cells, 5 days, EZ-Cytox, 3000 nM to 0.46 nM
Experimental: 3. Cell Viability Assay for H526 Cell Line
(1) Culture of NCI-H526 Cell Line
(2) Treatment of Compounds of the Present Invention and Method of Cell Viability Assay
After treating the compound to each well to make the total volume of 200 μL, it was cultured in a CO2 incubator (Thermo Fisher Science, Cat. No. 4111) for 5 days.
The absorbance of the completely cultured sample was measured by setting the wavelength of a plate reader (BMG Labtech, CLARIOstar Plus) to […], and was measured after shaking for 3 minutes in a plate reader before measurement.
In Table 3, Activity represents IC50 value of each Exemplary Compound treatment group to H526 cell line (A: <30 nM, B: <50 nM, C: <100 nM, D: <200 nM, E: <400 nM).

T1 sequence (P53350 whole entry): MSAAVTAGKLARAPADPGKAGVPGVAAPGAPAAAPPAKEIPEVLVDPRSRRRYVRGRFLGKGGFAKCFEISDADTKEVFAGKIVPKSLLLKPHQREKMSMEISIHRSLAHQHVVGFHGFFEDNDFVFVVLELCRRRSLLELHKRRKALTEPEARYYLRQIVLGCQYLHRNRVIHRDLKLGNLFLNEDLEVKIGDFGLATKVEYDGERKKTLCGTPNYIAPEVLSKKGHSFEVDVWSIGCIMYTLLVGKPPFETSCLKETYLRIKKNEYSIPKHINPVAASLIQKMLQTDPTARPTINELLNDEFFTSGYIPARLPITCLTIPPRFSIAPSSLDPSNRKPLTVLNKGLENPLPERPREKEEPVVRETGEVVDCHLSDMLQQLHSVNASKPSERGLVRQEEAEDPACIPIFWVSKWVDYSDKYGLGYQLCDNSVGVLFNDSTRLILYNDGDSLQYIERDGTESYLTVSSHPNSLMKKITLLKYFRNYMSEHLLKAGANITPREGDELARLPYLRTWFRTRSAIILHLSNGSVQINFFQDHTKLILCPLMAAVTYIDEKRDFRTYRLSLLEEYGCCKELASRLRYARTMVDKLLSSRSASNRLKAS

Row | remaining activity at 0.3 µM (PLK1) | Structure (SMILES) | IC50 (MRC-5 cell line) | IC50 (NCI-H526 cell line)
1 | < 30% | COc1cc(C(=O)NC2CC3(CCN(CC4CCN(c5ccc(C6CCC(=O)NC6=O)cc5F)CC4)CC3)C2)ccc1Nc1ncc2c(n1)N(C1CCCC1)CC(F)(F)C(=O)N2C (stereo not drawn) [Compound 15, 4-((9-cyclopentyl-7,7-difluoro-5-methyl-6-oxo-6,7,8,9-tetrahydro-5H-pyrimido[4,5-b][1,4]diazepin-2-yl)amino)-N-(7-((1-(4-(2,6-dioxopiperidin-3-yl)-2-fluorophenyl)piperidin-4-yl)methyl)-7-azaspiro[3.5]nonan-2-yl)-3-methoxybenzamide] | > 10 µM | < 0.03 µM
2 | < 70% | COc1cc(C(=O)NC2CC3(CCN(CC4CCN(c5ccc(N6CCC(=O)NC6=O)cc5)CC4)CC3)C2)ccc1Nc1ncc2c(n1)N(C1CCCC1)CC(F)(F)C(=O)N2C [Compound 33, 4-((9-cyclopentyl-7,7-difluoro-5-methyl-6-oxo-6,7,8,9-tetrahydro-5H-pyrimido[4,5-b][1,4]diazepin-2-yl)amino)-N-(7-((1-(4-(2,4-dioxotetrahydropyrimidin-1(2H)-yl)phenyl)piperidin-4-yl)methyl)-7-azaspiro[3.5]nonan-2-yl)-3-methoxybenzamide] | > 10 µM | < 0.03 µM
3 | < 60% | COc1cc(C(=O)NC2CC3(CCN(CCC4CCN(c5ccc(C6CCC(=O)NC6=O)cc5F)CC4)CC3)C2)ccc1Nc1ncc2c(n1)N(C1CCCC1)CC(F)(F)C(=O)N2C (stereo not drawn) [Compound 45, 4-((9-cyclopentyl-7,7-difluoro-5-methyl-6-oxo-6,7,8,9-tetrahydro-5H-pyrimido[4,5-b][1,4]diazepin-2-yl)amino)-N-(7-(2-(1-(4-(2,6-dioxopiperidin-3-yl)-2-fluorophenyl)piperidin-4-yl)ethyl)-7-azaspiro[3.5]nonan-2-yl)-3-methoxybenzamide] | 8.68 µM | < 0.03 µM
4 | < 60% | COc1cc(C(=O)NC2CCCN(C(=O)CN3CCN(c4ccc(C5CCC(=O)NC5=O)cc4F)CC3)C2)ccc1Nc1ncc2c(n1)N(C1CCCC1)CC(F)(F)C(=O)N2C (stereo not drawn) [Compound 13, 4-((9-cyclopentyl-7,7-difluoro-5-methyl-6-oxo-6,7,8,9-tetrahydro-5H-pyrimido[4,5-b][1,4]diazepin-2-yl)amino)-N-(1-(2-(4-(4-(2,6-dioxopiperidin-3-yl)-2-fluorophenyl)piperazin-1-yl)acetyl)piperidin-3-yl)-3-methoxybenzamide] | > 10 µM | < 0.05 µM
5 | < 60% | COc1cc(C(=O)NC2CC3(CCN(CC4CCN(c5ccc(C6CCC(=O)NC6=O)cc5F)CC4C)CC3)C2)ccc1Nc1ncc2c(n1)N(C1CCCC1)CC(F)(F)C(=O)N2C (stereo not drawn) [Compound 27, 4-((9-cyclopentyl-7,7-difluoro-5-methyl-6-oxo-6,7,8,9-tetrahydro-5H-pyrimido[4,5-b][1,4]diazepin-2-yl)amino)-N-(7-((1-(4-(2,6-dioxopiperidin-3-yl)-2-fluorophenyl)-3-methylpiperidin-4-yl)methyl)-7-azaspiro[3.5]nonan-2-yl)-3-methoxybenzamide] | > 10 µM | < 0.03 µM
6 | < 60% | COc1cc(C(=O)NC2CCN(C(=O)CCN3CCN(c4ccc(N5CCC(=O)NC5=O)cc4)CC3)CC2)ccc1Nc1ncc2c(n1)N(C1CCCC1)CC(F)(F)C(=O)N2C [Compound 32, 4-((9-cyclopentyl-7,7-difluoro-5-methyl-6-oxo-6,7,8,9-tetrahydro-5H-pyrimido[4,5-b][1,4]diazepin-2-yl)amino)-N-(1-(3-(4-(4-(2,4-dioxotetrahydropyrimidin-1(2H)-yl)phenyl)piperazin-1-yl)propanoyl)piperidin-4-yl)-3-methoxybenzamide] | > 10 µM | < 0.03 µM
7 | < 60% | COc1cc(C(=O)NC2CCN(C(=O)CCCOc3cccc(C4CCC(=O)NC4=O)c3)CC2)c(F)cc1Nc1ncc2c(n1)N(C1CCCC1)CC(F)(F)C(=O)N2C (stereo not drawn) [Compound 2, 4-((9-cyclopentyl-7,7-difluoro-5-methyl-6-oxo-6,7,8,9-tetrahydro-5H-pyrimido[4,5-b][1,4]diazepin-2-yl)amino)-N-(1-(4-(3-(2,6-dioxopiperidin-3-yl)phenoxy)butanoyl)piperidin-4-yl)-2-fluoro-5-methoxybenzamide] | > 10 µM | < 0.05 µM
8 | < 30% | COc1cc(C(=O)NC2CCN(C(=O)CCN3CCN(c4ccc(C5CCC(=O)NC5=O)cc4F)CC3)CC2)ccc1Nc1ncc2c(n1)N(C1CCCC1)CC(F)(F)C(=O)N2C (stereo not drawn) [Compound 11, 4-((9-cyclopentyl-7,7-difluoro-5-methyl-6-oxo-6,7,8,9-tetrahydro-5H-pyrimido[4,5-b][1,4]diazepin-2-yl)amino)-N-(1-(3-(4-(4-(2,6-dioxopiperidin-3-yl)-2-fluorophenyl)piperazin-1-yl)propanoyl)piperidin-4-yl)-3-methoxybenzamide] | > 10 µM | < 0.03 µM
9 | < 30% | COc1cc(C(=O)NC2CCN(CC3CC4(CCN(c5ccc(C6CCC(=O)NC6=O)cc5F)CC4)C3)CC2)ccc1Nc1ncc2c(n1)N(C1CCCC1)CC(F)(F)C(=O)N2C (stereo not drawn) [Compound 21, 4-((9-cyclopentyl-7,7-difluoro-5-methyl-6-oxo-6,7,8,9-tetrahydro-5H-pyrimido[4,5-b][1,4]diazepin-2-yl)amino)-N-(1-((7-(4-(2,6-dioxopiperidin-3-yl)-2-fluorophenyl)-7-azaspiro[3.5]nonan-2-yl)methyl)piperidin-4-yl)-3-methoxybenzamide] | > 10 µM | < 0.05 µM
10 | < 30% | COc1cc(C(=O)NC2CC3(CCN(CC4CCN(c5ccc(C6CCC(=O)NC6=O)cc5C)CC4)CC3)C2)ccc1Nc1ncc2c(n1)N(C1CCCC1)CC(F)(F)C(=O)N2C (stereo not drawn) [Compound 25, 4-((9-cyclopentyl-7,7-difluoro-5-methyl-6-oxo-6,7,8,9-tetrahydro-5H-pyrimido[4,5-b][1,4]diazepin-2-yl)amino)-N-(7-((1-(4-(2,6-dioxopiperidin-3-yl)-2-methylphenyl)piperidin-4-yl)methyl)-7-azaspiro[3.5]nonan-2-yl)-3-methoxybenzamide] | > 10 µM | < 0.03 µM
11 | < 30% | COc1cc(C(=O)NCC2CC23CCN(CC2CCN(c4ccc(C5CCC(=O)NC5=O)cc4F)CC2)CC3)ccc1Nc1ncc2c(n1)N(C1CCCC1)CC(F)(F)C(=O)N2C (stereo not drawn) [Compound 24, 4-((9-cyclopentyl-7,7-difluoro-5-methyl-6-oxo-6,7,8,9-tetrahydro-5H-pyrimido[4,5-b][1,4]diazepin-2-yl)amino)-N-((6-((1-(4-(2,6-dioxopiperidin-3-yl)-2-fluorophenyl)piperidin-4-yl)methyl)-6-azaspiro[2.5]octan-1-yl)methyl)-3-methoxybenzamide] | > 10 µM | < 0.05 µM
12 | < 30% | COc1cc(C(=O)NC2CCN(C(=O)CC3CCN(c4ccc(C5CCC(=O)NC5=O)cc4F)CC3)CC2)ccc1Nc1ncc2c(n1)N(C1CCCC1)CC(F)(F)C(=O)N2C (stereo not drawn) [Compound 10, 4-((9-cyclopentyl-7,7-difluoro-5-methyl-6-oxo-6,7,8,9-tetrahydro-5H-pyrimido[4,5-b][1,4]diazepin-2-yl)amino)-N-(1-(2-(1-(4-(2,6-dioxopiperidin-3-yl)-2-fluorophenyl)piperidin-4-yl)acetyl)piperidin-4-yl)-3-methoxybenzamide] | > 10 µM | < 0.05 µM
